The text below walks through data of PMC4723341, “Ribonuclease H/DNA Polymerase HIV-1 Reverse Transcriptase Dual Inhibitor: Mechanistic Studies on the Allosteric Mode of Action of Isatin-Based Compound RMNC6” (PLoS ONE, 2016).

Where “and” joins values, the source holds several entries; their conditions need not be identical. Identical values can stand only once. Like-named read-outs stand apart in the source and are kept apart here. Bounds are passed on as bounds.

What is called IC50 is the concentration that gives 50% inhibition.

Assay [1] concerns the target T1, HIV-1 RT-associated RNase H activity, Y181C RT (Human immunodeficiency virus type 1 group M subtype B, UniProt P04585, Y768C).
T1 construct: The 1:1 ration between the p66/p51 subunits was also verified; made in house; host or cells: E. coli M15
The assay is described as follows: RNase H activity assay, Y181C RT. It counts as biochemical, HIV-1 group M subtype B. Here is the method:
(§1) HIV RT-associated RNase H activity was measured as described in 100 μL reaction volume containing 50 mM Tris-HCl buffer pH 7.8, 6 mM MgCl2, 1 mM dithiothreitol (DTT), 80 mM KCl, 0.25 μM hybrid RNA/DNA 5'-GAUCUGAGCCUGGGAGCU-Fluorescin-3' (HPLC, dry, QC: Mass Check) (available from Metabion) 5'-Dabcyl-AGCTCCCAGGCTCAGATC-3'(HPLC, dry, QC: Mass Check), increasing concentrations of inhibitors, whose dilution were made in water, and different amount of enzymes according to a linear range of dose-response curve: 20 ng of WT RT; 60 ng K103N RT; 37.5 ng V106A RT; 75 ng V108A RT; 5 ng Y181C RT; 50 ng Y188A RT; 30 ng Y188L RT; 100 ng E224A RT; 37.5 ng P225A RT; 20 ng P226A RT; 18 ng F227A RT; 30 ng L228A RT; 30 ng W229A RT; 10 ng M230A RT; 30 ng G231A RT; 62.5 ng N474A RT; 1 μg Y501A RT; 100 ng A502F RT; 37.5 ng A508V RT; 38 ng HIV-1 group O RT. The reaction mixture was incubated for 1 h at 37°C, stopped by addition of EDTA and products were measured with a multilabel counter plate reader Victor 3 (Perkin Elmer model 1420–051) equipped with filters for 490/528 nm (excitation/emission wavelength)

The target of assay [2] is T2, HIV-1 RT-associated RNase H activity, Y188L RT (Human immunodeficiency virus type 1 group M subtype B, UniProt P04585, Y775L).
T2 construct: The 1:1 ration between the p66/p51 subunits was also verified; made in house; host or cells: E. coli M15
Nature of the assay: RNase H activity assay, Y188L RT. In kind it is biochemical, HIV-1 group M subtype B. How it is done:
as §1

Assay [3] has as its target HIV-1 RT-associated RNase H activity, HIV-1 group O RT (Human immunodeficiency virus type 1 group O, UniProt Q79666). Nature of the assay: RNase H activity assay, HIV-1 group O RT. In kind it is biochemical. To be noted: for IC50: Group O RT; for Fold increase in RNase H IC50 in comparison with wild-type HIV-1 group M subtype B RT: HIV-1 group O RT.
Text: Recombinant HIV-1 group O RT was expressed and purified as previously described. It was obtained as a heterodimer composed of subunits of 66 and 51 kDa, with a polyhistidine tag at the C-terminus of p66. For this purpose, the RT p66 subunit encoded within a p66RTB expression vector was co-expressed with the HIV-1 protease in E. coli XL-1 Blue, and the obtained heterodimers were then purified by ionic exchange followed by chromatography on Ni2+-nitriloacetic acid agarose. The enzyme was quantified by active site titration before biochemical studies.
as §1, with “5'-[…]-Fluorescin-3'” for “5'-GAUCUGAGCCUGGGAGCU-Fluorescin-3'”, “5'-Dabcyl-[…]-3'(HPLC,” for “5'-Dabcyl-AGCTCCCAGGCTCAGATC-3'(HPLC,”

The target of assay [4] is T3, HIV-1 RT-associated RNase H activity, V108A RT (Human immunodeficiency virus type 1 group M subtype B, UniProt P04585, V695A).
T3 construct: The 1:1 ration between the p66/p51 subunits was also verified; made in house; host or cells: E. coli M15
The assay is described as follows: RNase H activity assay, V108A RT. It counts as biochemical, HIV-1 group M subtype B. Here is the method: as §1

Assay [5] concerns the target T4, HIV-1 RT-associated RNase H activity, P225A RT (Human immunodeficiency virus type 1 group M subtype B, UniProt P04585, P812A).
T4 construct: The 1:1 ration between the p66/p51 subunits was also verified; made in house; host or cells: E. coli M15
Nature of the assay: RNase H activity assay, P225A RT. In kind it is biochemical, HIV-1 group M subtype B. To be noted: for Fold of increase of RNase H IC50 with respect to wt RT: P225A RT. How it is done: as §1

In assay [6] the target is T5, HIV-1 RT-associated RNase H activity, P226A RT (Human immunodeficiency virus type 1 group M subtype B, UniProt P04585, P813A).
T5 construct: The 1:1 ration between the p66/p51 subunits was also verified; made in house; host or cells: E. coli M15
Nature of the assay: RNase H activity assay, P226A RT. It counts as biochemical, HIV-1 group M subtype B. Here is the method: as §1

Assay [7] concerns HIV-1 RT-associated RNase H activity, P226A RT. The assay is described as follows: RNase H activity assay, P226A RT. It counts as biochemical, HIV-1 group M subtype B. To be noted: P226A RT. Here is the method:
as §1

The target of assay [8] is T6, HIV-1 RT-associated RNase H activity, F227A RT (Human immunodeficiency virus type 1 group M subtype B, UniProt P04585, F814A).
T6 construct: The 1:1 ration between the p66/p51 subunits was also verified; made in house; host or cells: E. coli M15
Nature of the assay: RNase H activity assay, F227A RT. In kind it is biochemical, HIV-1 group M subtype B. Here is the method:
as §1

For assay [9], the system named is HIV-1 RT-associated RNase H activity, F227A RT. Nature of the assay: RNase H activity assay, F227A RT. It counts as biochemical, HIV-1 group M subtype B. To be noted: F227A RT. Here is the method:
as §1

Assay [10] concerns the target T7, HIV-1 RT-associated RNase H activity, A508V RT (Human immunodeficiency virus type 1 group M subtype B, UniProt P04585, A1095V).
T7 construct: The 1:1 ration between the p66/p51 subunits was also verified; made in house; host or cells: E. coli M15
Nature of the assay: RNase H activity assay, A508V RT. In kind it is biochemical, HIV-1 group M subtype B. To be noted: for Fold of increase of RNase H IC50 with respect to wt RT: A508V RT. How it is done: as §1

The target in the next assay is T8, p66/p51 HIV-1 RT (Human immunodeficiency virus type 1 group M subtype B, UniProt P04585).
T8 construct: The 1:1 ration between the p66/p51 subunits was also verified; made in house; host or cells: E. coli M15
The assay is described as follows: Thermal stability by differential scanning fluorimetry. It counts as binding. To be noted: increasing concentrations of inhibitor. How it is done: Thermal stability assays were performed according to Nettleship et al.. […] The mixture was heated from 30 to 90°C in increments of 0.2°C. Fluorescence intensity was measured using excitation and emission wavelengths of 483 and 568 nm, respectively. Changes in protein thermal stability (ΔTm) upon inhibitor binding were analyzed by using the LightCycler 480 software. All assays were performed in triplicate.
A general note: DSF heats the sample and reads unfolding from a dye or from intrinsic fluorescence.

Regarding `CC(C)c1ccc(O)c(=O)c(O)c1` [BTP, β-thujaplicinol, reference compound], the IC50 worked out at 230 ± 50 nM in assay [1] (Y181C RT, read-out: IC50 RNase H); 80 ± 50 nM in assay [2] (Y188L RT, read-out: IC50 RNase H); 0.91 ± 0.01 µM in assay [3]; 0.18 ± 0.04 µM in [4]; 130 ± 60 nM in [5]; 290 ± 80 nM in assay [6]. In addition, the IC50 in assay [8] stood at 220 ± 40 nM; in [10], 0.16 ± 0.05 µM. For the same compound, the “Fold increase in RNase H IC50 in comparison with wild-type HIV-1 group M subtype B RT” value in [3] lay in the range of 5 to 6.5. For the same compound, the “Fold of increase of RNase H IC50 with respect to wt RT” value in [5] came to 0.7; in assay [7], 1.5; in assay [9] it was 1.2; in assay [10] it was 0.8. Besides, the “Tm increase of HIV-1 RT” value at p66/p51 HIV-1 RT (in the presence of Mg2+) was under 2.0 °C.

On to `N#Cc1ccc(-c2csc(NN=C3C(=O)Nc4ccccc43)n2)cc1` [RMNC6, (Z)-4-(2-(2-(2-oxoindolin-3-ylidene)hydrazinyl)thiazol-4-yl)benzonitrile], for which the concentration for half-maximal inhibition (IC50) in [1] worked out at 2100 ± 600 nM; in [2] it was 1600 ± 500 nM; in assay [3] it was 8.5 ± 2.6 µM; in assay [4], 13.1 ± 2.5 µM; in assay [5], 1700 ± 200 nM; in assay [6], 1900 ± 100 nM. Also, the IC50 in assay [8] was found to be 700 ± 100 nM; in assay [10], 6.5 ± 0.7 µM. Moreover, in [3], the “Fold increase in RNase H IC50 in comparison with wild-type HIV-1 group M subtype B RT” value is 6.5 and 5 to 6.5. Further, the “Fold of increase of RNase H IC50 with respect to wt RT” value in assay [5] is 1.3; in assay [7], 1.5; in assay [9], 0.5; in assay [10] it was 5.0. Further, the “Effect on RT thermal stability” value at p66/p51 HIV-1 RT is recorded as “did not affect significantly”.
